Measured values reported in ChEMBL document CHEMBL5696442, “Discovery of type II inhibitors of TGFβ-activated kinase 1 (TAK1) and mitogen-activated protein kinase kinase kinase kinase 2 (MAP4K2)” (J Med Chem, 2015).
Activity calls are given as the source filed them. No cut-off for these calls is given here.

How the values were obtained:
[1] = biological target: Serine/threonine-protein kinase Chk2 (Homo sapiens) (UniProt O96017); assay: Inhibition of CHEK2 (unknown origin) at 10 uM by Ambit Kinomescan binding assay
Chain of Serine/threonine-protein kinase Chk2 (Homo sapiens) (O96017 whole entry): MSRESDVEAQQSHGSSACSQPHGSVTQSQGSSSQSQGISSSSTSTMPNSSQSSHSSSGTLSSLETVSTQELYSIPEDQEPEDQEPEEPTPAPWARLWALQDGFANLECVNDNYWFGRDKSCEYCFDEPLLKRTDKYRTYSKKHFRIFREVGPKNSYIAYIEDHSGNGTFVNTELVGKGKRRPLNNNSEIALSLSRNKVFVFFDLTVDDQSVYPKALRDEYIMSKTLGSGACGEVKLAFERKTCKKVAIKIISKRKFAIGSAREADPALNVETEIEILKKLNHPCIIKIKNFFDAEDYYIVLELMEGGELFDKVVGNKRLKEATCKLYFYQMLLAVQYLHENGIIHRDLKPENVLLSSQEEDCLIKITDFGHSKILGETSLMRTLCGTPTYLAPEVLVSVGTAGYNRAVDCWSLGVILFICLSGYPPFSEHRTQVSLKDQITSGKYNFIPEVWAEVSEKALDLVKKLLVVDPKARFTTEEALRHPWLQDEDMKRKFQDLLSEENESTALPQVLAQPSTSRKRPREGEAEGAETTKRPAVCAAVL

[2] = biological target: Epidermal growth factor receptor (Homo sapiens) (UniProt P00533); assay: Inhibition of EGFR Lys1 labeling site in human A-375 cells at 5 uM by KiNativ Profiling analysis relative to control; type: cell-based
Chain of Epidermal growth factor receptor (Homo sapiens) (P00533 whole entry): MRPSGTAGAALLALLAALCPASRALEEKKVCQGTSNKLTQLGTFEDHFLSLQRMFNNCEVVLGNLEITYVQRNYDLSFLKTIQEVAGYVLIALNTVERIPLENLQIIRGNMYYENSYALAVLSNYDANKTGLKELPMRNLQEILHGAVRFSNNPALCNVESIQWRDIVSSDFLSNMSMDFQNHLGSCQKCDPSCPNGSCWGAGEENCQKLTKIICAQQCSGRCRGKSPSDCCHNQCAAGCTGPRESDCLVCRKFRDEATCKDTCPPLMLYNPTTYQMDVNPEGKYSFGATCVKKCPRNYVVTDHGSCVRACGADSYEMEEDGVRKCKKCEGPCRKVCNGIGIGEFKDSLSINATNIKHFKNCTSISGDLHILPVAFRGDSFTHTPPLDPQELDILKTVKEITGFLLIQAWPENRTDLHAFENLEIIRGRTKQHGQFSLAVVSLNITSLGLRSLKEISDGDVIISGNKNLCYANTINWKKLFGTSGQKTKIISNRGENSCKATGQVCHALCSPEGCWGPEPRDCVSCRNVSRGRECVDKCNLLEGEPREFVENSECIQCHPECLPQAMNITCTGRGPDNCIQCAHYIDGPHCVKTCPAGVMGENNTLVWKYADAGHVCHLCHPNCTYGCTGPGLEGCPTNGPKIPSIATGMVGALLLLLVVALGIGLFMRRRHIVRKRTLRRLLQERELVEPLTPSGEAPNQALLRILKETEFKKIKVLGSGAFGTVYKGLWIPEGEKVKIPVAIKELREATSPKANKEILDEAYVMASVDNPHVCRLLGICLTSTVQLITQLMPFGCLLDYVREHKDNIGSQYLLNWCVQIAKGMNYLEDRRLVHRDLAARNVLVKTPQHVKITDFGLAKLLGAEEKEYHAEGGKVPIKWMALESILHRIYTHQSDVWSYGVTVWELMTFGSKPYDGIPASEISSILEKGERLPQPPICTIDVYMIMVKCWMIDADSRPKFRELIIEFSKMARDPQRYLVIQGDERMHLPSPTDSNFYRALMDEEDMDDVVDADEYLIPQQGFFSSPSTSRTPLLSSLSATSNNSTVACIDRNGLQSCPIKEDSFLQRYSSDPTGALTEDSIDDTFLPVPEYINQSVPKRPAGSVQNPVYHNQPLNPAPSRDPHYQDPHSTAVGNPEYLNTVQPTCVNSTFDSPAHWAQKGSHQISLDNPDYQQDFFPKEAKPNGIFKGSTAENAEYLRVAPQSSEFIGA

[3] = biological target: Serine/threonine-protein kinase Nek7 (Homo sapiens) (UniProt Q8TDX7); assay: Inhibition of NEK7 ACT labeling site in human A-375 cells at 0.5 uM by KiNativ Profiling analysis relative to control; type: cell-based
Chain of Serine/threonine-protein kinase Nek7 (Homo sapiens) (Q8TDX7 whole entry, looked up): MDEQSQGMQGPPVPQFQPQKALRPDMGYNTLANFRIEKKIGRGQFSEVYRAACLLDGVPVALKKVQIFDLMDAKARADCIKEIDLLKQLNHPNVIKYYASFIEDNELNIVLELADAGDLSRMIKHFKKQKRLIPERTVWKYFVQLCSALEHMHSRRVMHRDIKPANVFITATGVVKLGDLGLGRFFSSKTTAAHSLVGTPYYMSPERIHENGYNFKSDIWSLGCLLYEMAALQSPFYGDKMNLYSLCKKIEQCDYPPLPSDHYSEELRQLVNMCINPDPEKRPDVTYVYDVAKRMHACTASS

[4] = Inhibition of […] K2 labeling site in human Huh-7 cells at 10 uM by KiNativ Profiling analysis relative to control; settings: condition cancer
[5] = biological target: T1, Serine/threonine-protein kinase D1 (Homo sapiens) (UniProt Q15139); assay: Inhibition of PKD1 Lys2 labeling site in human Huh-7 cell lysate at 1 uM by KiNativ Profiling analysis relative to control; type: subcellular
T1 sequence (whole entry): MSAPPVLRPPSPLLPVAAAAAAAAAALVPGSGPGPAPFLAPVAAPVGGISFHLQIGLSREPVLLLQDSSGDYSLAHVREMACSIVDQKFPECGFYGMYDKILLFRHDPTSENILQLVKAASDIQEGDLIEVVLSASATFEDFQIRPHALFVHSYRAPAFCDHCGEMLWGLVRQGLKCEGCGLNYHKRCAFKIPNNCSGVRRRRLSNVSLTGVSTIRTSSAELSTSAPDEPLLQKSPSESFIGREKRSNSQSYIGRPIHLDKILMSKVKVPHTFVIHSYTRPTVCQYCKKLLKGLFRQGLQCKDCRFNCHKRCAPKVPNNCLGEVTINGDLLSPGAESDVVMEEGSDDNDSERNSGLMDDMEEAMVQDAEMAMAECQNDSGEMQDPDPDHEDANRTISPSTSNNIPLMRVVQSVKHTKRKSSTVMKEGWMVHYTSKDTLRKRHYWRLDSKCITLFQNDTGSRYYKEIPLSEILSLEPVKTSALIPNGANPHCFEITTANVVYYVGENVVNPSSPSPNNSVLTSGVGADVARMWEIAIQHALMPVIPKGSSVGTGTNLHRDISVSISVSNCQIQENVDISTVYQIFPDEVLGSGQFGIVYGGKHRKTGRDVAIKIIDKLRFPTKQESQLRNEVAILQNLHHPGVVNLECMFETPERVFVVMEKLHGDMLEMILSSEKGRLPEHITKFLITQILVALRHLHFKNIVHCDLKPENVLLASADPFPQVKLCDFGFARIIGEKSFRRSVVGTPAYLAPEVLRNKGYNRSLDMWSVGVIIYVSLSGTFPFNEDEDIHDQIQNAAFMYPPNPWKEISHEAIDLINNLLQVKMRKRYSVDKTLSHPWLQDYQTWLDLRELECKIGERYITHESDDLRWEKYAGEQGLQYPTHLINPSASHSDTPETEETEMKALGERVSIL

[6] = biological target: T2, Scaffold protein ILK (Homo sapiens) (UniProt Q13418); assay: Inhibition of ILK Protein Kinase Domain labeling site in human Huh-7 cells at 1 uM by KiNativ Profiling analysis relative to control; type: cell-based
T2 sequence (whole entry): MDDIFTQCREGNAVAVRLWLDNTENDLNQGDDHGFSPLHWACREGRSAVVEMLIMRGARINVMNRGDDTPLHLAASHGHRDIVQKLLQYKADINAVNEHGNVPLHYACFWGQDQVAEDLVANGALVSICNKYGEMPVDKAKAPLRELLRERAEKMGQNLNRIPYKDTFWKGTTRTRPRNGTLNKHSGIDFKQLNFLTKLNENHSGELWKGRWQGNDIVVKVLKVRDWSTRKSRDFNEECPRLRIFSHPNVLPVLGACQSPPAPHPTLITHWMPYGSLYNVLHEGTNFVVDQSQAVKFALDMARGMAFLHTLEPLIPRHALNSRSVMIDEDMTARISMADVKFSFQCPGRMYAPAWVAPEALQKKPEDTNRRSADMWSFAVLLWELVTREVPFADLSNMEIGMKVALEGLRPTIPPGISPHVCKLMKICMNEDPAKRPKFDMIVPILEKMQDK

[7] = biological target: T3, NUAK family SNF1-like kinase 1 (Homo sapiens) (UniProt O60285); assay: Inhibition of NuaK1 Lys2 labeling site in human Huh-7 cells at 1 uM by KiNativ Profiling analysis relative to control; type: cell-based
T3 sequence (whole entry): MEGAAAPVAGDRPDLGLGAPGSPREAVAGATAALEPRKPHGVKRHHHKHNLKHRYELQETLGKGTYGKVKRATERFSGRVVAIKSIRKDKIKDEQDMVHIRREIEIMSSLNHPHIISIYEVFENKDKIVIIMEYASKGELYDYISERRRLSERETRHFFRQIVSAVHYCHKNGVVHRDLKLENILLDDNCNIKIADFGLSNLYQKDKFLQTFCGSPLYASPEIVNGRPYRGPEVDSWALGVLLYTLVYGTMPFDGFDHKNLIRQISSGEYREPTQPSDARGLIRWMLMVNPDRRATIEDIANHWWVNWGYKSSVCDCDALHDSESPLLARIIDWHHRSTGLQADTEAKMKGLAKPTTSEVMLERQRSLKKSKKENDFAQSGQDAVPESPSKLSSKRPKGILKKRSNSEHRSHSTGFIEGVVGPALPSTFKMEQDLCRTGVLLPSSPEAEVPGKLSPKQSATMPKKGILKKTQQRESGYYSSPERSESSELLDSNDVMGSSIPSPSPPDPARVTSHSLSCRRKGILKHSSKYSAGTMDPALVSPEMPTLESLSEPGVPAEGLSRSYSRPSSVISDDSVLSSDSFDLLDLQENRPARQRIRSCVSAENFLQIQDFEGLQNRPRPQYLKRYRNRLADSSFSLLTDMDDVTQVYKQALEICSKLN

[8] = biological target: T4, Phosphatidylinositol 5-phosphate 4-kinase type-2 gamma (Homo sapiens) (UniProt Q8TBX8); assay: Inhibition of PIP4K2C ATP labeling site harbouring VKELPTLKDMDFLNK in human Huh-7 cells at 1 uM by KiNativ Profiling analysis relative to control; type: cell-based
T4 sequence (whole entry): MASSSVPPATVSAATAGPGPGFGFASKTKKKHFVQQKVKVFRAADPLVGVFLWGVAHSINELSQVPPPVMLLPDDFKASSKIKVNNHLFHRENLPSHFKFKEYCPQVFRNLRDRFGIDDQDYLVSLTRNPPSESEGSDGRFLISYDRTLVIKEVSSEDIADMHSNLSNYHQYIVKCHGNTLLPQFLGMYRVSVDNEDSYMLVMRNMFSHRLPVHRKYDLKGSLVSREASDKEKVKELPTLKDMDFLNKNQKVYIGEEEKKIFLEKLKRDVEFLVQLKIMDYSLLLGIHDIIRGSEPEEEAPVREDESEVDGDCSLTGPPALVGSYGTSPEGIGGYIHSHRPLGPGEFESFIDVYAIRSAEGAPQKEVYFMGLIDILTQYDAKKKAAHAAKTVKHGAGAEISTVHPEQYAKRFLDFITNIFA

## CCN1CCN(Cc2ccc(NC(=O)c3ccc(C)c(Oc4ccnc5[nH]ccc45)c3)cc2C(F)(F)F)CC1
[1]
  inhibition: inactive
[2]
  inhibition: -1.5%
[3]
  inhibition: 1.6%
[4]
  inhibition at 10 µM: -6.7%

## CNc1cc(Oc2cc(C(=O)Nc3cc(N4CCN(C)CC4)cc(C(F)(F)F)c3)ccc2C)ncn1
[5]
  inhibition: -3.5%
[6]
  inhibition: -0.1%
[7]
  inhibition: 20.5%
[8]
  inhibition: 5.4%
